The target in one test is InhA enoylreductase (Mycobacterium tuberculosis, UniProt P9WGR1). Nature of the test: InhA enoylreductase activity inhibition test (NADH disappearance at 340 nm). As to conditions: read-out: InhA inhibition percentage; for inhibition at 10 µM: inhibitor concentration 10 μM, preincubation time 5 min. Format: biochemical. How it is done: The InhA protein was expressed in E. coli after cloning the inhA gene in a plasmidic vector of the pET type. Growing the resulting strain and inducing expression of the inhA gene with 1 mM IPTG (isopropyl β-D-thiogalactoside) leads to the production of water-soluble InhA protein at approximately 28.5 KDa (28,368 Da) (monomeric) which is purified by standard protein purification techniques. The enzyme is present in the form of a tetramer in solution and is kept in 50 mM Hepes buffer, 50% glycerol at −20° C.
Chain of InhA enoylreductase (P9WGR1 whole entry, looked up): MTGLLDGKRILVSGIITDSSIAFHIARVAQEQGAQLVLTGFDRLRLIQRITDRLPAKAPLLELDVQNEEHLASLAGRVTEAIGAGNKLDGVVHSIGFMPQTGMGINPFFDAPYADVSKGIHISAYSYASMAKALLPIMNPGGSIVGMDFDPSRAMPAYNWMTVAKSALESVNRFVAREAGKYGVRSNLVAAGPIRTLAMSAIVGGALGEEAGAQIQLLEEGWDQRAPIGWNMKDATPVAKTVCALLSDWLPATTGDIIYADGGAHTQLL
The InhA enoylreductase activity is monitored by UV spectrometry, by monitoring the disappearance of the signal of the reduced cofactor NADH at 340 nm as a function of time. The percentage inhibition is calculated by subtracting from 100 the ratio of the initial speeds (V) measured during kinetics with and without inhibitor, multiplied by 100:% inhibition=100−(Vinhib/Vblank*100). The initial speed is measured by drawing the tangent to the curve DO=f(time) at time zero.
The enzymatic reaction is carried out in a final volume of 100 μl (in a quartz vessel, optical path 1 cm). The absorption of each reaction mixture is determined with a UVIKON 293 spectrophotometer (Bio-Tek Kontron Instruments) connected to a thermostatically controlled bath which makes it possible to maintain the temperature of the vessel at 25° C. A baseline is produced during preincubation immediately before measurements begin. The measurements are carried out over 3 min after a preincubation of 5 min or 2 h.
The preincubation is carried out in 90 μl (total volume) of a solution of PIPES buffer 30 mM, NaCl 150 mM, pH=6.8 at 25° C. containing 100 nM of InhA, 100 μM, 20 μM or 10 μM of the compound to be tested (or 500 nM of the pool of INH-NAD adducts constituting the control inhibitors) and 200 μM of NADH. After 5 min or 2 h of preincubation, the addition of 35 μM of the substrate 2-trans-decenoyl-CoA initiates the reaction. […]

For test [1], the system named is Corynebacterium glutamicum. As to the kind of experiment: Growth inhibition of Corynebacterium glutamicum, MTT test. A general note: Tetrazolium assays rely on reduction of a dye to a coloured formazan, in cell work by metabolically active cells.
Description: The Corynebacterium glutamicum strain is cultivated in a BHI (Brain-Heart Infusion) medium at 30° C. with stirring at 200 rpm. The DO of the culture is measured directly and set to a value of 0.002-0.003 by dilution in the LB culture medium. C. glutamicum also grows in the LB medium, and this is used instead of BHI, which is strongly coloured and interferes with the DO reading at 570 nm.
The stock solutions are prepared in DMSO at a concentration 100 times greater than the highest concentration to be tested.
The test is carried out in the same way as the test on M. smegmatis.
The tests are carried out on 96-well NUNC microplates (Merck-eurolab). All the concentrations were tested at least twice.
Each well contains 100 μl of compound in solution in the culture medium (LB with 1% final DMSO). Subsequently, 100 μl of bacterial suspension having DO 0.002 at 650 nm are added.
The plate is sealed using parafilm and incubated at 30° C. for C. glutamicum. After two hours of incubation, 50 μl of a 1 mg/ml solution of tetrazolium salt (MTT) are added to each well. After one hour of incubation at 30° C. for C. glutamicum, 100 μl of lysis buffer are added to each well and the plate is left with stirring at ambient temperature until the solution is fully homogeneous.
The optical density is measured at 570 nm with a μQuant 96-well microplate spectrophotometer, Bio-tek Instruments, Inc.

One may read the inhibition as the share of the control response that was lost under treatment. Turning to `CCCCCCCCCCCCc1cccc(C2(O)NC(=O)c3c[n+](CC(=O)OCC)ccc32)c1` (centres unmarked) [Example 3, 1-(3-dodecylphenyl)-5-[2-(ethyloxy)-2-oxoethyl]-1-hydroxy-3-oxo-1,2-dihydropyrrolo[3,4-c]pyridinium bromide], the inhibition at 10 µM on InhA enoylreductase turned out to be 19%. Regarding `CCCCCCCCCCCCOc1cccc(C2(O)NC(=O)c3cnccc32)c1` (centres unmarked) [Example 2, 1-(3-dodecyloxyphenyl)-1-hydroxy-1,2-dihydropyrrolo[3,4-c]pyridin-3-one], the inhibition at 100 µM on InhA enoylreductase (inhibitor concentration 100 μM, preincubation time 2 h (*)) was found to be 80%. Regarding `CCCCCCCCCCCCc1cccc(C(=O)C2C=CN(CC(=O)OCC)C=C2C(N)=O)c1` (centres unmarked) [Example 4, ethy 3-aminocarbonyl-[4-(3-dodecylbenzoyl)-1,4-dihydro-pyridin-1-yl]acetate], at InhA enoylreductase, the inhibition at 10 µM was found to be 25%.

Consider `NNC(=O)c1ccncc1` [Isoniazide], for which the IC50 in test [1] (Corynebacterium glutamicum, read-out: CI50 (concentration corresponding to 50% inhibition) on the bacterial strain C. glutamicum) was above 5 mM. Also, the “activity on C. glutamicum” value in test [1] (at 5 mM) is reported as “does not exhibit any activity”.
